The test system of series [1] is Diabrotica balteata. Nature of the series: Diabrotica balteata (Corn Rootworm): 24-well microtiter plate with artificial diet, L2 larvae, larval mortality. In kind it is in vivo. Conditions: for pest or weed control at 50 µg/mL / pest or weed control at 200 ppm: Diabrotica balteata, 120 h; for pest or weed control at 50 µg/mL: read-out: control of Diabrotica balteata at 50 ppm or less; for pest or weed control at 200 ppm: read-out: control of Diabrotica balteata; for Control/%: comparative example. Here is the method: Diabrotica balteata (Corn Rootworm)
[…] After drying, the MTP's are infested with L2 larvae (6-10 per well). After an incubation period of 5 days, samples are checked for larval mortality.
Compounds are tested according to the above method.

The test system of series [2] is Diabrotica balteata. Description: Diabrotica balteata (Banded Cucumber Beetle): treated corn seeds sown in soil pots, seedlings infested with 3rd stage larvae. The format is in vivo. The following applies: seed treatment, 6 days incubation. As for the experimental part: Diabrotica balteata (Banded Cucumber Beetle)
Treated corn seeds are sown in a 350 ml pot filled with soil. Two weeks after sowing phytotoxicity (lack of shoot—missing emergence) in comparison to the control is estimated and expressed in percentage. Furthermore, corn seedlings are infested with 3rd stage larvae of Diabrotica balteata. After an incubation period of 6 days survived larvae are counted and larval growth is assessed. Larval growth indicates the number of larvae with size differences between the larvae in the control and treatments, expressed in percentage.

Setting [3] is: application rate 200 ppm (concentration in well 18 ppm), L2 larvae, 5 days.
Setting [4] is: 50 ppm or less, L2 larvae, 5 days.

Like-named read-outs stand apart in the source and are kept apart here.

`N#Cc1cc(C2=NOC(c3cc(Cl)c(F)c(Cl)c3)(C(F)(F)F)C2)ccc1-n1nc(C(F)(F)F)cc1C(F)(F)F` (stereo not shown) [Compound D10]: the “control of Diabrotica balteata” value in series [1] (setting [3]) is given as “No activity”. Turning to `CC(=O)NCc1ccc(N2CCC(c3cc(Cl)cc(Cl)c3)(C(F)(F)F)C2)cc1C` (stereo not shown) [Compound A4, N-{4-[3-(3,5-dichlorophenyl)-3-(trifluoromethyl)pyrrolidin1-yl]-2-methyl-benzyl)acetamide], the pest or weed control at 50 µg/mL in series [1] (setting [4]) is > 80%. Further, the pest or weed control at 200 ppm in series [1] (setting [3]) was ≥ 80%. For `CCC(=O)NC1CCc2cc(N3CCC(c4cc(C(F)(F)F)cc(C(F)(F)F)c4)(C(F)(F)F)C3)ccc21` (stereo not shown) [Compound E6, N-[5-[3-[3,5-bis(trifluoromethyl)phenyl]-3-(trifluoromethyl)pyrrolidin-1-yl]indan-1-yl]propanamide], in that order: > 80% and ≥ 80%. Take `O=C(CC(F)(F)F)NC1CCc2cc(C3=NOC(c4cc(Cl)cc(Cl)c4)(C(F)(F)F)C3)ccc21` (stereo not shown) [Compound E7]: in series [2] (application rate 0.3 mg/seed), the “% larval mortality” value stood at 60%. On to `CC(=O)N[C@@H](C)c1ccc(C2=NOC(c3cc(Cl)cc(Cl)c3)(C(F)(F)F)C2)cc1` (stereo partly drawn) [Compound B2, N-[(1S)-1-[4-[5-(3,5-dichlorophenyl)-5-(trifluoromethyl)-4H-isoxazol-3-yl]phenyl]ethyl]acetamide], for which, in series [1], the pest or weed control at 200 ppm was ≥ 80% and the pest or weed control at 50 µg/mL is > 80%.

Take `C[C@H](NC(=O)C1CC1)c1ccc(N2CCC(c3cc(Cl)cc(Cl)c3)(C(F)(F)F)C2)cc1` (stereo partly drawn) [Compound B1, N-[(1S)-1-[4-[3-(3,5-dichlorophenyl)-3-(trifluoromethyl)pyrrolidin-1-yl]phenyl]ethyl]cyclopropanecarboxamide]: in series [1] (setting [4]), the pest or weed control at 50 µg/mL is > 80%. In addition, the pest or weed control at 200 ppm in series [1] (setting [3]) is ≥ 80%.

In the case of `O=C(NCC(F)(F)F)N1CCc2cc(C3=NOC(c4cc(Cl)cc(Cl)c4)(C(F)(F)F)C3)ccc21` (stereo not shown) [reference compound], the Control/% in series [1] (application rate 12.5 ppm) amounted to 65%. In the case of `CCC(=O)NC1CCc2cc(C3=NCC(c4cc(Cl)cc(Cl)c4)(C(F)(F)F)C3)ccc21` (stereo not shown) [Compound E3, N-[5-[3-(3,5-dichlorophenyl)-3-(trifluoromethyl)-2,4-dihydropyrrol-5-yl]indan-1-yl]propanamide], the pest or weed control at 50 µg/mL in series [1] (setting [4]) is > 80%. For the same compound, the pest or weed control at 200 ppm in series [1] (setting [3]) is ≥ 80%. With `N#Cc1cc(C2=NOC(c3cc(Cl)cc(Cl)c3)(C(F)(F)F)C2)ccc1-n1cncn1` (stereo not shown) [Compound C4], the “% larval mortality” value in series [2] (application rate 1 mg/seed) stood at 100%. As to `C[C@H](NC(=O)C1CC1)c1ccc(C2(C(F)(F)F)CN=C(c3cc(Cl)c(Cl)c(Cl)c3)C2)cc1` (stereo partly drawn) [Compound B3, N-[(1S)-1-[4-[5-(3,4,5-trichlorophenyl)-3-(trifluoromethyl)-2,4-dihydropyrrol-3-yl]phenyl]ethyl]cyclopropanecarboxamide], the “% larval mortality” value in series [2] (application rate 0.3 mg/seed) is recorded as 80%. Also, the pest or weed control at 50 µg/mL in series [1] (setting [4]) was > 80%. The pest or weed control at 200 ppm in series [1] (setting [3]) is ≥ 80%.

With `CCC(=O)NC1CCc2cc(C3=NOC(c4cc(Cl)cc(Cl)c4)(C(F)(F)F)C3)ccc21` (stereo not shown) [Compound E1], the “% larval mortality” value in series [2] (application rate 0.3 mg/seed) is reported as 83%.

With `O=C(CC(F)(F)F)NC1CCc2cc(C3=NOC(c4cc(Cl)cc(Cl)c4)(C(F)(F)F)C3)ccc21` (stereo not shown) [drawing 74], the Control/% in series [1] (application rate 3 ppm) and in series [1] (application rate 12.5 ppm) was 100% throughout. As to `C[C@H](NC(=O)C1CC1)c1ccc(N2CCC(c3cc(C(F)(F)F)cc(C(F)(F)F)c3)(C(F)(F)F)C2)cc1` (stereo partly drawn) [Compound B4, N-[(1S)-1-[4-[3-[3,5-bis(trifluoromethyl)phenyl]-3-(trifluoromethyl)pyrrolidin-1-yl]phenyl]ethyl]cyclopropanecarboxamide], the “% larval mortality” value in series [2] (application rate 0.3 mg/seed) amounted to 78%. For the same compound, in series [1] (setting [4]), the pest or weed control at 50 µg/mL is > 80%. In addition, in series [1] (setting [3]), the pest or weed control at 200 ppm is ≥ 80%.

With `N#Cc1cc(C2=NOC(c3cc(Cl)c(F)c(Cl)c3)(C(F)(F)F)C2)ccc1-n1cc(F)cn1` (stereo not shown) [Compound D2], in series [2] (application rate 1 mg/seed), the “% larval mortality” value is on record as 100%.

On to `CC(C)C(=O)NCc1ccc(C2=NOC(c3cc(Cl)cc(Cl)c3)(C(F)(F)F)C2)cc1Cl` (stereo not shown) [Compound A2], for which, in series [1], the pest or weed control at 200 ppm was ≥ 80% and the pest or weed control at 50 µg/mL is > 80%. As for `N#Cc1cc(C2=NOC(c3cc(Cl)c(F)c(Cl)c3)(C(F)(F)F)C2)ccc1-n1cncn1` (stereo not shown) [Compound C3], the “% larval mortality” value in series [2] (application rate 1 mg/seed) is 83%. Moreover, in series [1], the pest or weed control at 200 ppm is ≥ 80% and the pest or weed control at 50 µg/mL was > 80%. Take `CCC(=O)NCc1ccc(C2=NOC(c3cc(Cl)cc(Cl)c3)(C(F)(F)F)C2)cc1Cl` (stereo not shown) [Compound A3]: in series [1], the pest or weed control at 200 ppm was ≥ 80% and the pest or weed control at 50 µg/mL is > 80%. Take `Cc1cc(C2=NOC(c3cc(Cl)cc(Cl)c3)(C(F)(F)F)C2)ccc1-n1cccn1` (stereo not shown) [Compound D5]: the “control of Diabrotica balteata” value in series [1] (setting [3]) is listed as “lower control”.

Consider `FC(F)(F)C1(c2cc(Cl)cc(Cl)c2)CC(c2ccc(-n3cncn3)cc2)=NO1` (stereo not shown) [reference compound], for which the Control/% is listed as 0% in series [1] (application rate 3 ppm) and 85% in series [1] (application rate 12.5 ppm). Consider `N#Cc1cc(C2=NOC(c3cc(Cl)cc(Cl)c3)(C(F)(F)F)C2)ccc1-n1cncn1` (stereo not shown) [drawing 76], for which the results for the Control/% in series [1] (application rate 3 ppm) and in series [1] (application rate 12.5 ppm) were 65% and 100%, respectively. In the case of `CC(=O)NCc1ccc(C2=NCC(c3cc(Cl)cc(Cl)c3)(C(F)(F)F)C2)cc1Br` (stereo not shown) [Compound A5, N-{2-bromo-4-[4-(3,5-dichlorophenyl)-4-trifluoromethyl-4,5-dihydro-3H-pyrrol-2yl]-benzyl}acetamide], the pest or weed control at 50 µg/mL in series [1] (setting [4]) was > 80%. For the same compound, the pest or weed control at 200 ppm in series [1] (setting [3]) is ≥ 80%. As to `O=C(NC1CCc2cc(C3=NCC(c4cc(Cl)cc(Cl)c4)(C(F)(F)F)C3)ccc21)C1CC1` (stereo not shown) [Compound E4, N-[5-[3-(3,5-dichlorophenyl)-3-(trifluoromethyl)-2,4-dihydropyrrol-5-yl]indan-1-yl]cyclopropanecarboxamide], the pest or weed control at 50 µg/mL in series [1] (setting [4]) is > 80%. Moreover, the pest or weed control at 200 ppm in series [1] (setting [3]) was ≥ 80%. For `O=C(NC1CCc2cc(C3=NCC(c4cc(Cl)cc(Cl)c4)(C(F)(F)F)C3)ccc21)C(F)(F)F` (stereo not shown) [Compound E5, N-[5-[3-(3,5-dichlorophenyl)-3-(trifluoromethyl)-2,4-dihydropyrrol-5-yl]indan-1-yl]-2,2,2-trifluoro-acetamide], in that order: > 80% and ≥ 80%. As to `N#Cc1cc(C2=NOC(c3cc(Cl)c(F)c(Cl)c3)(C(F)(F)F)C2)ccc1-n1ccc(C(F)(F)F)n1` (stereo not shown) [Compound D11], the “control of Diabrotica balteata” value in series [1] (setting [3]) is listed as “No activity”. Consider `N#Cc1cc(C2=NCC(c3cc(Cl)c(Cl)c(Cl)c3)(C(F)(F)F)C2)ccc1-n1cncn1` (stereo not shown) [Compound C2, 2-(1,2,4-triazol-1-yl)-5-[3-(3,4,5-trichlorophenyl)-3-(trifluoromethyl)-2,4-dihydropyrrol-5-yl]benzonitrile], for which, in series [2] (application rate 0.3 mg/seed), the “% larval mortality” value was determined as 44%. Further, the pest or weed control at 50 µg/mL in series [1] (setting [4]) was > 80%. Further, the pest or weed control at 200 ppm in series [1] (setting [3]) is ≥ 80%.

On to `CC(=O)NC1CCc2cc(C3=NCC(c4cc(Cl)cc(Cl)c4)(C(F)(F)F)C3)ccc21` (stereo not shown) [Compound E2, N-[5-[3-(3,5-dichlorophenyl)-3-(trifluoromethyl)-2,4-dihydropyrrol-5-yl]indan-1-yl]acetamide], for which the pest or weed control at 50 µg/mL in series [1] (setting [4]) is > 80%. Also, the pest or weed control at 200 ppm in series [1] (setting [3]) was ≥ 80%. With `N#Cc1cnn(-c2ccc(C3=NOC(c4cc(Cl)c(F)c(Cl)c4)(C(F)(F)F)C3)cc2C#N)c1` (stereo not shown) [Compound D1], in series [2] (application rate 1 mg/seed), the “% larval mortality” value came out at 100%.

The values are drawn from patent publication US20150208658A1, “METHODS OF SOIL PEST CONTROL” (Syngenta Participations AG, priority 2012, published 2015).
